Data reported in ChEMBL document CHEMBL5236651, “Synthesis and antibacterial activity of novel 2‑fluoro ketolide antibiotics with 11,12‑quinoylalkyl side chains” (2023).
≈ marks a conversion by molar mass, not a printed value.

Legend:
Assay type in all cases: functional
[1] = tested on: Pseudomonas aeruginosa; assay: Antibacterial activity against Pseudomonas aeruginosa PAO1 assessed as inhibition of bacterial growth by CLSI based micro broth double dilution method
[2] = tested on: Streptococcus pyogenes; assay: Antibacterial activity against erythromycin-sensitive Streptococcus pyogenes ATCC 19615 assessed as inhibition of bacterial growth by CLSI based micro broth double dilution method
[3] = tested on: Escherichia coli; assay: Antibacterial activity against ESBL-positive Escherichia coli ATCC 35218 assessed as inhibition of bacterial growth by CLSI based micro broth double dilution method
[4] = tested on: Staphylococcus aureus; assay: Antibacterial activity against methicillin-sensitive Staphylococcus aureus ATCC 29213 assessed as inhibition of bacterial growth by CLSI based micro broth double dilution method
[5] = tested on: Pseudomonas aeruginosa; assay: Antibacterial activity against Pseudomonas aeruginosa 16-11 assessed as inhibition of bacterial growth by CLSI based micro broth double dilution method
[6] = tested on: Klebsiella pneumoniae; assay: Antibacterial activity against ESBL positive Klebsiella pneumoniae ATCC 700603 assessed as inhibition of bacterial growth by CLSI based micro broth double dilution method
[7] = tested on: Enterococcus faecalis; assay: Antibacterial activity against vancomycin-resistant Enterococcus faecalis ATCC 51575 assessed as inhibition of bacterial growth by CLSI based micro broth double dilution method
[8] = tested on: Pseudomonas aeruginosa; assay: Antibacterial activity against Pseudomonas aeruginosa ATCC 27853 assessed as inhibition of bacterial growth by CLSI based micro broth double dilution method
[9] = tested on: Klebsiella pneumoniae; assay: Antibacterial activity against ESBL negative Klebsiella pneumoniae 16-2 assessed as inhibition of bacterial growth by CLSI based micro broth double dilution method
[10] = tested on: Streptococcus pneumoniae; assay: Antibacterial activity against erythromycin-resistant Streptococcus pneumoniae 12-3 assessed as inhibition of bacterial growth by CLSI based micro broth double dilution method
[11] = tested on: Streptococcus pneumoniae; assay: Antibacterial activity against erythromycin-sensitive Streptococcus pneumoniae ATCC 49619 assessed as inhibition of bacterial growth by CLSI based micro broth double dilution method
[12] = tested on: Streptococcus pyogenes; assay: Antibacterial activity against erythromycin-resistant Streptococcus pyogenes 12-1 assessed as inhibition of bacterial growth by CLSI based micro broth double dilution method
[13] = tested on: Klebsiella pneumoniae; assay: Antibacterial activity against ESBL negative Klebsiella pneumoniae 7 assessed as inhibition of bacterial growth by CLSI based micro broth double dilution method
[14] = tested on: Staphylococcus aureus; assay: Antibacterial activity against methicillin-sensitive Staphylococcus aureus 16-1 assessed as inhibition of bacterial growth by CLSI based micro broth double dilution method
[15] = tested on: Staphylococcus aureus; assay: Antibacterial activity against methicillin-sensitive Staphylococcus aureus 15 assessed as inhibition of bacterial growth by CLSI based micro broth double dilution method
[16] = tested on: Enterococcus faecalis; assay: Antibacterial activity against vancomycin-sensitive Enterococcus faecalis […] assessed as inhibition of bacterial growth by CLSI based micro broth double dilution method
[17] = tested on: Staphylococcus epidermidis; assay: Antibacterial activity against methicillin-sensitive Staphylococcus epidermidis ATCC 12228 assessed as inhibition of bacterial growth by CLSI based micro broth double dilution method
[18] = tested on: Enterococcus faecalis; assay: Antibacterial activity against vancomycin-resistant Enterococcus faecalis ATCC 51299 assessed as inhibition of bacterial growth by CLSI based micro broth double dilution method
[19] = tested on: Escherichia coli; assay: Antibacterial activity against Escherichia coli 16-7 assessed as inhibition of bacterial growth by CLSI based micro broth double dilution method
[20] = tested on: Escherichia coli; assay: Antibacterial activity against ESBL-negative Escherichia coli ATCC 25922 assessed as inhibition of bacterial growth by CLSI based micro broth double dilution method
[21] = tested on: Staphylococcus epidermidis; assay: Antibacterial activity against methicillin-sensitive Staphylococcus epidermidis 16-4 assessed as inhibition of bacterial growth by CLSI based micro broth double dilution method
[22] = tested on: Enterococcus faecalis; assay: Antibacterial activity against vancomycin-sensitive Enterococcus faecalis 16-6 assessed as inhibition of bacterial growth by CLSI based micro broth double dilution method

Structure (SMILES)	MIC [1] [µg/mL]	MIC [2] [µg/mL]	MIC [3] [µg/mL]	MIC [4] [µg/mL]	MIC [5] [µg/mL]	MIC [6] [µg/mL]	MIC [7] [µg/mL]	MIC [8] [µg/mL]	MIC [9] [µg/mL]	MIC [10] [µg/mL]	MIC [11] [µg/mL]	MIC [12] [µg/mL]	MIC [13] [µg/mL]	MIC [14] [µg/mL]	MIC [15] [µg/mL]	MIC [16] [µg/mL]	MIC [17] [µg/mL]	MIC [18] [µg/mL]	MIC [19] [µg/mL]	MIC [20] [µg/mL]	also measured
CC[C@H]1OC(=O)[C@@](C)(F)C(=O)[C@H](C)[C@@H](O[C@@H]2O[C@H](C)C[C@H](N(C)C)[C@H]2O)[C@@](C)(OC)C[C@@H](C)C(=O)[C@H](C)[C@H]2N(CCCNc3ccnc4ccccc34)C(=O)O[C@]12C	> 32	0.06 (≈ 0.0736 µM)	8 (≈ 9.82 µM)	0.12 (≈ 0.147 µM)	> 32	32 (≈ 39.3 µM)	> 32	> 32	16 (≈ 19.6 µM)	0.06 (≈ 0.0736 µM)	≤ 0.016	> 32	8 (≈ 9.82 µM)	0.12 (≈ 0.147 µM)	0.12 (≈ 0.147 µM)	0.12 (≈ 0.147 µM)	0.06 (≈ 0.0736 µM)	> 32	8 (≈ 9.82 µM)	4 (≈ 4.91 µM)	MIC [21]: 0.25 µg/mL (≈ 0.307 µM); MIC [22]: > 32 µg/mL
CC[C@H]1OC(=O)[C@@](C)(F)C(=O)[C@H](C)[C@@H](O[C@@H]2O[C@H](C)C[C@H](N(C)C)[C@H]2O)[C@@](C)(OC)C[C@@H](C)C(=O)[C@H](C)[C@H]2N(CCCN(C(=O)CCc3ccccc3)c3cnc4ccccc4c3)C(=O)O[C@]12C	> 32	0.5 (≈ 0.528 µM)	> 32	1 (≈ 1.06 µM)	> 32	> 32	> 32	> 32	> 32	0.06 (≈ 0.0633 µM)	≤ 0.016	16 (≈ 16.9 µM)	> 32	1 (≈ 1.06 µM)	1 (≈ 1.06 µM)	0.5 (≈ 0.528 µM)	0.5 (≈ 0.528 µM)	> 32	> 32	> 32	MIC [21]: 4 µg/mL (≈ 4.22 µM); MIC [22]: > 32 µg/mL
CC[C@H]1OC(=O)[C@@](C)(F)C(=O)[C@H](C)[C@@H](O[C@@H]2O[C@H](C)C[C@H](N(C)C)[C@H]2O)[C@@](C)(OC)C[C@@H](C)C(=O)[C@H](C)[C@H]2N(CCCOc3ccnc4ccccc34)C(=O)O[C@]12C	> 32	0.25 (≈ 0.306 µM)	> 32	1 (≈ 1.23 µM)	> 32	> 32	> 32	> 32	> 32	32 (≈ 39.2 µM)	0.25 (≈ 0.306 µM)	16 (≈ 19.6 µM)	> 32	0.5 (≈ 0.613 µM)	1 (≈ 1.23 µM)	0.5 (≈ 0.613 µM)	0.5 (≈ 0.613 µM)	> 32	> 32	> 32	MIC [21]: 1 µg/mL (≈ 1.23 µM); MIC [22]: > 32 µg/mL
CC[C@H]1OC(=O)[C@@](C)(F)C(=O)[C@H](C)[C@@H](O[C@@H]2O[C@H](C)C[C@H](N(C)C)[C@H]2O)[C@@](C)(OC)C[C@@H](C)C(=O)[C@H](C)[C@H]2N(CCCN(C)c3ccnc4ccccc34)C(=O)O[C@]12C	> 32	0.03 (≈ 0.0362 µM)	> 32	0.5 (≈ 0.603 µM)	> 32	> 32	> 32	> 32	> 32	0.12 (≈ 0.145 µM)	0.03 (≈ 0.0362 µM)	> 32	> 32	0.5 (≈ 0.603 µM)	0.5 (≈ 0.603 µM)	0.25 (≈ 0.302 µM)	0.25 (≈ 0.302 µM)	> 32	> 32	> 32	MIC [21]: 2 µg/mL (≈ 2.41 µM); MIC [22]: > 32 µg/mL
CC[C@H]1OC(=O)[C@@](C)(F)C(=O)[C@H](C)[C@@H](O[C@@H]2O[C@H](C)C[C@H](N(C)C)[C@H]2O)[C@@](C)(OC)C[C@@H](C)C(=O)[C@H](C)[C@H]2N(CCCN(Cc3ccccc3)c3ccnc4ccccc34)C(=O)O[C@]12C	> 32	0.25 (≈ 0.276 µM)	> 32	1 (≈ 1.1 µM)	> 32	> 32	> 32	> 32	> 32	0.12 (≈ 0.133 µM)	≤ 0.016	16 (≈ 17.7 µM)	> 32	1 (≈ 1.1 µM)	1 (≈ 1.1 µM)	2 (≈ 2.21 µM)	0.25 (≈ 0.276 µM)	> 32	> 32	> 32	MIC [21]: 2 µg/mL (≈ 2.21 µM); MIC [22]: > 32 µg/mL
CC[C@H]1OC(=O)[C@@](C)(F)C(=O)[C@H](C)[C@@H](O[C@@H]2O[C@H](C)C[C@H](N(C)C)[C@H]2O)[C@@](C)(OC)C[C@@H](C)C(=O)[C@H](C)[C@H]2N(CCCn3ccc(=O)c4ccccc43)C(=O)O[C@]12C	> 32	0.03 (≈ 0.0368 µM)	> 32	0.12 (≈ 0.147 µM)	> 32	> 32	> 32	> 32	> 32	0.25 (≈ 0.306 µM)	≤ 0.016	> 32	> 32	0.12 (≈ 0.147 µM)	0.12 (≈ 0.147 µM)	0.06 (≈ 0.0735 µM)	0.06 (≈ 0.0735 µM)	> 32	> 32	16 (≈ 19.6 µM)	MIC [21]: 0.25 µg/mL (≈ 0.306 µM); MIC [22]: > 32 µg/mL
CC[C@H]1OC(=O)[C@H](C)C(=O)[C@H](C)[C@@H](O[C@@H]2O[C@H](C)C[C@H](N(C)C)[C@H]2O)[C@](C)(OC)C[C@@H](C)C(=O)[C@H](C)[C@H]2N(CCCCn3cnc(-c4cccnc4)c3)C(=O)O[C@]12C [TELITHROMYCIN]	> 64	0.06 (≈ 0.0739 µM)	> 64	0.25 (≈ 0.308 µM)	> 64	> 64	16 (≈ 19.7 µM)	> 64	> 64	0.06 (≈ 0.0739 µM)	0.03 (≈ 0.0369 µM)	64 (≈ 78.8 µM)	> 64	0.25 (≈ 0.308 µM)	0.25 (≈ 0.308 µM)	0.12 (≈ 0.148 µM)	0.25 (≈ 0.308 µM)	16 (≈ 19.7 µM)	> 64	64 (≈ 78.8 µM)	MIC [21]: 1 µg/mL (≈ 1.23 µM); MIC [22]: 16 µg/mL (≈ 19.7 µM)
CC[C@H]1OC(=O)[C@@](C)(F)C(=O)[C@H](C)[C@@H](O[C@@H]2O[C@H](C)C[C@H](N(C)C)[C@H]2O)[C@@](C)(OC)C[C@@H](C)C(=O)[C@H](C)[C@H]2N(CCCN(Cc3ccccc3)c3cnc4ccccc4c3)C(=O)O[C@]12C	> 32	0.12 (≈ 0.133 µM)	> 32	1 (≈ 1.1 µM)	> 32	32 (≈ 35.4 µM)	> 32	> 32	> 32	0.25 (≈ 0.276 µM)	0.03 (≈ 0.0331 µM)	8 (≈ 8.84 µM)	8 (≈ 8.84 µM)	0.5 (≈ 0.552 µM)	0.5 (≈ 0.552 µM)	0.5 (≈ 0.552 µM)	0.25 (≈ 0.276 µM)	> 32	> 32	> 32	MIC [21]: 1 µg/mL (≈ 1.1 µM); MIC [22]: > 32 µg/mL
CC[C@H]1OC(=O)[C@@](C)(F)C(=O)[C@H](C)[C@@H](O[C@@H]2O[C@H](C)C[C@H](N(C)C)[C@H]2O)[C@@](C)(OC)C[C@@H](C)C(=O)[C@H](C)[C@H]2N(CCCN(C(=O)/C=C/c3ccccc3)c3ccnc4ccccc34)C(=O)O[C@]12C	> 32	0.5 (≈ 0.529 µM)	> 32	1 (≈ 1.06 µM)	> 32	32 (≈ 33.9 µM)	> 32	> 32	> 32	0.5 (≈ 0.529 µM)	≤ 0.016	8 (≈ 8.46 µM)	> 32	0.5 (≈ 0.529 µM)	1 (≈ 1.06 µM)	0.5 (≈ 0.529 µM)	1 (≈ 1.06 µM)	> 32	> 32	> 32	MIC [21]: 1 µg/mL (≈ 1.06 µM); MIC [22]: > 32 µg/mL
CC[C@H]1OC(=O)[C@@](C)(F)C(=O)[C@H](C)[C@@H](O[C@@H]2O[C@H](C)C[C@H](N(C)C)[C@H]2O)[C@@](C)(OC)C[C@@H](C)C(=O)[C@H](C)[C@H]2N(CCCN(C(C)=O)c3ccnc4ccccc34)C(=O)O[C@]12C	> 32	0.03 (≈ 0.035 µM)	32 (≈ 37.3 µM)	0.12 (≈ 0.14 µM)	> 32	32 (≈ 37.3 µM)	4 (≈ 4.67 µM)	> 32	> 32	0.03 (≈ 0.035 µM)	≤ 0.016	2 (≈ 2.33 µM)	> 32	0.06 (≈ 0.07 µM)	0.06 (≈ 0.07 µM)	0.06 (≈ 0.07 µM)	0.06 (≈ 0.07 µM)	4 (≈ 4.67 µM)	32 (≈ 37.3 µM)	32 (≈ 37.3 µM)	MIC [21]: 0.25 µg/mL (≈ 0.292 µM); MIC [22]: 4 µg/mL (≈ 4.67 µM)
